The text below walks through data of patent publication US5916919A, “Retrovirus protease inhibitors” (priority 1997, dated 1999).

In brackets after ≈: the same amount, converted by molar mass. Read-outs that look alike come from different tables or passages of the source.

For data set [1] the following is noted: HIV positive, ARC and AIDS individuals; cited from earlier work.
The target in a further data set is T1, HIV-1 protease (Human immunodeficiency virus type 1 group M subtype B, UniProt P04585).
T1 construct: Recombinant HIV-1 protease was prepared from the expression vector, PGEX-PR 107; made in house
Briefly: HPLC assay of proteolytic activity of recombinant HIV-1 protease (SQNYPIV substrate). It counts as biochemical. Particulars: for Inhibition (inhibitory activity of compounds against HIV-1 protease) / inhibition at 17.9 µg/mL: 17.9 μg/ml, HPLC assay; for inhibition at 17.9 µg/mL: read-out: Inhibition (inhibitory activity of compounds against HIV-1 protease); for anti-HIV-1 protease activity (in words): 17.9 μg/ml (tested concentration). As to the method:
Recombinant HIV-1 protease was prepared from the expression vector, PGEX-PR 107, in E. coli DII5a and was purified according to the method established in Dr. Wan's laboratory.
The proteolytic activity of HIV-1 PR was measured by Dr. Wan's group at the Biochemistry Department using the synthetic heptapeptide Ser-Gln-Asn-Tyr-Pro-Ile-Val (SQNYPIV), corresponding to the p24-p17 cleavage site in the natural gag precursor, as substrate. The products of cleavage were analyzed by reversed-phase high-performance liquid chromatography (RP-HPLC, Ultrasphere ODS, 5μ, 4.6 mm×15 cm, Beckman, Calif., USA) with a 7-33% acetonitrile gradient in 0.1% trifluoroacetic acid (TFA). Product peak areas were integrated by a data system (Chromatopac C-R3A, Shimadzu, Japan) and compared with the standard peptide SQNY, which is expected to be generated from heptapeptide SQNYPIV after HIV-1 protease digestion. The extinction coefficient of the peptide SQNY was used to estimate the rate of proteolysis of the heptapeptide substrate. The assay was performed in a volume of 140 μl containing 90 pmole of substrate, 2 U of HIV-1 protease and compound solution in 0.1 M NaOAc buffer, pH 5.5, with 1 M (NH4)2 SO4, at 37° C. The reaction which proceeded for 2 h was terminated by the addition of 20 μl of aqueous 10% trifluoroacetic acid. The supernatant obtained by centrifuging at 12,000 rpm for 3 min was then analyzed by the hplc method. The unit of enzyme activity was defined as the amount of enzyme which yields 1 nmol of tetrapeptide SQNY under the above conditions in 1 min.
The proteolytic activity of HIV-1 protease inhibited by the compound was calculated as the activity of the control subtracting that of the sample, and then divided by itself.

Data set [2] relates to HIV. As to conditions: cited from earlier work.
Data set [3] deals with HIV. Particulars: cited from earlier work. This is another data set of the same source.
Data set [4] has as its system HIV. Particulars: cited from earlier work. This is another data set of the same source.
The test system of a further data set is HSV. Particulars: cited from earlier work.
In data set [5] the test system is HIV-infected Molt-4 clone No. 8 cells. As to conditions: cited from earlier work.
The subject of data set [6] is HIV. Particulars: MT-4 cells; cited from earlier work.
Data set [7] concerns HIV. As to conditions: MT-4 cells, cited from earlier work.
The test system of data set [8] is HIV-specific antigen expression. Particulars: MT-4 cells; cited from earlier work.

Take `Cc1cn([C@H]2C[C@H](N=[N+]=[N-])[C@@H](CO)O2)c(=O)[nH]c1=O` [AZT, 3'-azido-3'-deoxythymidine]: the toxicity entry in [1] is “frequently toxic, causing bone marrow suppression resulting in anemia leucopenia and thrombocytopenia”.
In general, inhibition refers to how much of the control response was suppressed. `C[C@@H]1CC[C@]2(C(=O)O)CC[C@]3(C)C(=CC[C@@H]4[C@@]5(C)C[C@@H](O)C(=O)C(C)(C)[C@@H]5CC[C@]43C)[C@@H]2[C@]1(C)O` [Compound 1, 2α,19α-Dihydroxy-3-oxo-12-ursen-28-oic acid]: at HIV-1 protease, the “Inhibition (inhibitory activity of compounds against HIV-1 protease)” value is on record as 72.19% and the inhibition at 17.9 µg/mL stood at 72%.
With `C[C@H]1[C@H](C)CC[C@]2(C(=O)O)CC[C@]3(C)C(=CC[C@@H]4[C@@]5(C)CC[C@H](O)C(C)(C)[C@@H]5CC[C@]43C)[C@H]12` [Compound 2, 3β-Hydroxy-12-ursen-28-oic acid], at HIV-1 protease, the “Inhibition (inhibitory activity of compounds against HIV-1 protease)” value stood at 85.07% and the inhibition at 17.9 µg/mL was found to be 85%.
For the molecule `C[C@@H]1CC[C@]2(C(=O)O)CC[C@]3(C)C(=CC[C@@H]4[C@@]5(C)CC[C@@H](O)C(C)(C)[C@@H]5CC[C@]43C)[C@@H]2[C@]1(C)O` [Compound 3, 3α,19α-Dihydroxy-12-ursen-28-oic acid], at HIV-1 protease, the “Inhibition (inhibitory activity of compounds against HIV-1 protease)” value is listed as 42.18% and the inhibition at 17.9 µg/mL came out at 42%.
Regarding `CC1(C)CC[C@]2(C(=O)O)CC[C@]3(C)C(=CC[C@@H]4[C@@]5(C)C[C@@H](O)[C@H](O)C(C)(C)[C@@H]5CC[C@]43C)[C@@H]2C1` [Compound 4, 2α,3β-Dihydroxy-12-oleanen-28-oic acid], on HIV-1 protease, the “anti-HIV-1 protease activity (in words)” value is recorded as “most active” and the inhibition at 17.9 µg/mL stood at 100%.
For the molecule `C[C@@H]1CC[C@]2(C(=O)O)CC[C@]3(C)C(=CC[C@@H]4[C@@]5(C)C[C@@H](O)[C@@H](O)C(C)(C)[C@@H]5CC[C@]43C)[C@@H]2[C@]1(C)O` [Compound 5, 2α,3α,19α-Trihydroxy-12-ursen-28-oic acid], the “anti-HIV-1 protease activity (in words)” value at HIV-1 protease is on record as “did not show activity”.
Take `C[C@@H]1CC[C@]2(C(=O)O)CC[C@]3(C)C(=CC[C@@H]4[C@@]5(C)C[C@@H](O)[C@H](O)C(C)(C)[C@@H]5CC[C@]43C)[C@@H]2[C@]1(C)O` [Compound 6, 2α,3β,19α-Trihydroxy-12-ursen-28-oic acid]: at HIV-1 protease, the “Inhibition (inhibitory activity of compounds against HIV-1 protease)” value was 49.47% and the inhibition at 17.9 µg/mL turned out to be 49%.
One may read the EC50 as the concentration at which the effect is half-maximal. On to `COc1ccc(-c2cc(=O)c3c(O)cc(O[C@@H]4O[C@H](CO)[C@H](O)[C@H](O)[C@H]4O)cc3o2)cc1` [acacetin-7-O-β-D-galactopyranoside], for which, in the data set on HIV [2], the EC50 is 8 µM, the IC50 is 37 µM, the “anti-HIV activity (in words)” value is recorded as “significant anti-HIV activity” and the therapeutic index is on record as 5.
As to `COc1c(O)cc2c(c1O)[C@@H]1O[C@H](CO)[C@@H](O)[C@H](O)[C@H]1OC2=O` [bergenin], the “anti-HIV activity (in words)” value in the data set with HIV [3] (in vitro) is “moderate anti-HIV activity”.
As to `C=C(C)[C@@H]1CC[C@]2(C(=O)O)CC[C@]3(C)[C@H](CC[C@@H]4[C@@]5(C)CC[C@H](O)C(C)(C)[C@@H]5CC[C@]43C)[C@@H]12` [betulinic acid], the “inhibition of HIV replication (in words)” value in the data set on HIV [4] is “potent inhibitors of HIV replication”.
On to `CC(C)[C@@H]1CC[C@]2(C(=O)O)CC[C@]3(C)C(CCC4[C@@]5(C)CC[C@H](O)C(C)(C)C5CC[C@]43C)C12` (stereo partly shown) [dihydrobetulinic acid], for which the “inhibition of HIV replication (in words)” value in the data set with HIV [4] is “potent inhibitors of HIV replication”.
Turning to `O=Cc1cc(O)c(O)c(O)c1` [gallic aldehyde], the “anti-HSV activity (in words)” value with HSV is reported as “strong anti-HSV activity”.
On to `CC1(C)[C@@H](O[C@H]2O[C@H](C(=O)O)[C@@H](O)[C@H](O)[C@H]2O[C@@H]2O[C@H](C(=O)O)[C@@H](O)[C@H](O)[C@H]2O)CC[C@]2(C)[C@H]3C(=O)C=C4[C@@H]5C[C@@](C)(C(=O)O)CC[C@]5(C)CC[C@@]4(C)[C@]3(C)CC[C@@H]12` [glycyrrhizin], for which the “inhibition of giant cell formation” value in [5] is “inhibited giant cell formation”. In addition, in the data set on HIV [6], the “concentration at which cytopathic effect of HIV was inhibited” value is recorded as 0.3 mM. Further, in the data set with HIV [7], the “concentration at which HIV-induced plaque formation was inhibited” value is given as 0.6 mM. For the same molecule, the IC50 with HIV [7] (read-out: 50% inhibitory dose, HIV-induced plaque formation) was 150 µM. The “concentration at which HIV-specific antigen expression was inhibited” value in data set [8] is reported as 0.6 mM.
With `O=C1O[C@@H]2[C@@H](O)[C@H](O)[C@@H](CO)O[C@H]2c2c1cc(O)c(O)c2O` [norbergenin], the selectivity index entry with HIV [3] (IC50/EC50 basis not stated) was “above 25”. Moreover, the EC50 in the data set on HIV [3] (in vitro anti-HIV) was 20 µg/mL (≈ 63.6 µM). In the data set with HIV [3] (in vitro), the IC50 entry is given as “over 500 μg/ml” and the “anti-HIV activity (in words)” value was “moderate anti-HIV activity”.
For `CC(=O)[C@@H]1CC[C@]2(C(=O)O)CC[C@]3(C)[C@H](CC[C@@H]4[C@@]5(C)CC[C@H](O)C(C)(C)[C@@H]5CC[C@]43C)[C@@H]12` [platanic acid], the “inhibition of HIV replication (in words)” value with HIV [4] is “potent inhibitors of HIV replication”.
For the molecule geponin, the “anti-HSV activity (in words)” value in the data set on HSV was “strong anti-HSV activity”.
